In patent US20240050329A1, “METHODS FOR COSMETIC SKIN REMODELING” (ELC Management LLC, priority 2019, published 2024):
Several values for one entry are separate records, joined by “and”; a condition that tells them apart may be missing. Equal values may be shown once. Read-outs that look alike come from different tables or passages of the source. Where a SMILES comes first, the peptide text is derived from it.

Key:
[1] = Solution-gel (sol-gel) transition of each peptide; assay type: physicochemical
Protocol: In compositions, the influence of pH of 3 to 9, ionic strength of about 0 M to about 5 M salt concentration (for example, ZnCl2, NaCl etc.) via addition of any monovalent and/or divalent cation or temperature plays a critical role in preventing the self-assembly in formulation. In compositions, the pH maybe in the range of about 3 to 9. In some compositions, the amount of peptide is in a range of about 0.001% to 30% by weight and the temperature of the composition may be in a range of about 19° C. to 42° C.

ex vivo skin = test: pH dependent peptide self-assembly within intact ex vivo skin (click histology); settings: propargylglycine versions of the peptides, 0.6 mg/mL, topical, pH 4 to 9
Protocol: To aid in visualization of the effects of pH and salinity on peptide self-assembly within tissue, peptides were labeled via F-moc chemistry with propargylglycine. Biopsies (12-mm) of abdominal skin explants were isolated, maintained, as stated in example 4, and were treated topically with the propargylglycine labeled peptides ([…]), twice a day for 5 days. The propargylglycine labeled peptides included A6K, IEIK-13, KLD-12, RADA-16, IGVPAG, and VGVPAG.
To determine how pH and salinity influences peptide assembly in the skin, the propargylglycine labeled peptides were prepared at various pH or salinity pH 3 to 9 or containing a salt content of 0.1-3.0%, respectively. The skins were fixed, cryoprotected, cryosectioned (8 μm) and stored at −20° C. until Copper(I)-Catalyzed Alkyne-Azide Cycloaddition (CuAAC), or click chemistry, was performed to detect peptide assembly. Representative results are shown herein.
The sections were washed, mounted with Fluoromount-G plus DAPI, and were imaged using the Zeiss Axio Observer Z1 Fluorescence Motorized Microscope.
Click chemistry is a technique that uses two biologically inert functional groups, an alkyne and an azide, which form a triazole in the presence of Copper(I). The alkyne on the terminus of the peptide negligibly impacts the aspects of molecule that will impact the penetration of the peptide in tissue (i.e. molecular weight, log P, isoelectric point, and self-assembly) allowing for the peptide to penetrate based on its inherent properties. Once the alkyne-peptide is delivered to the tissue, the sample is fixed, and “stained” with an azido-fluorophore. […] This click histology protocol allows for the peptide of interest to be selectively detected via fluorescence microscopy in the presence of endogenous peptides and/or proteins. […]

skin layers = test: Triggers of self-assembly within the skin layers
existing elastin fibers = test: Temperature dependent self-assembly of ELPs in decellularized ex vivo dermises (Elastin van Gieson staining, elastin fiber density); settings: for Elastin fiber integrated density (FIG. 1B): 100 μg/mL, compared to PBS of the same temperature; for Elastin van Gieson staining signal (FIG. 1A): decellularized dermises submerged in 100 μg/mL peptide, five days, 4, 37 or 42° C., compared to PBS
Protocol: The generation of elastin fibers involves the self-assembly process of coacervation causing an accumulation of hydrophobic tropoelastin molecules prior to being cross-linked at lysines to generate mature elastin fibers. Elastin-like peptides (ELPs) undergo temperature-driven conformational change upon heat referred to as inverse temperature transition (ITT).
Following decellularization, the skins, here after referred to as dermises, were washed three times in PBS buffer (1X) for 2 hours each. The decellularized dermises were submerged in either PBS, 100 μg/mL Pal-VGVAPG, or Ace-IGVAPG, for five days, with daily solution changes. Three ex vivo dermises for each treatment were incubated at 4° C., 37° C., or 42° C. The decellularized dermises were fixed overnight in 10% formalin, paraffin embedded and sections at 8 μm. H&E and Elastin van Gieson staining were performed to confirm decellularization and to visualize elastin fibers, respectively. Elastin fiber density quantification was performed via thresholding the elastin fibers using NIH ImageJ software and measurements were recorded.
H&E staining confirmed that the tissues were successfully decellularized (data not shown). […] FIG. 1A indicates the representative images of Elastin van Gieson stained decellularized dermises which were incubated with Pal-VGVAPG and Ace-IGVAPG at different temperatures while concentration was kept constant (100 μg/mL). Elastin fibers are stained black at a scale bar of 50 μm.
Statistical significance of differences between means was performed using two-way ANOVA followed by Tukey's multiple comparisons test. Error bars represent standard error of the mean (SEM). All analyses were performed using Prism 8 software (GraphPad, San Diego, CA, U.S.A.).

[2] = tested on: pre-existing elastin fibers; test: Concentration driven self-assembly in ex vivo skin treated topically (Elastin van Gieson stain); settings: topical
Protocol: Self-assembly of biomolecules is dependent on a critical self-assembly concentration, where self-assembly biomolecules remain as monomers below a critical concentration and assemble above a specific concentration threshold.
Biopsies (12-mm) were treated topically with various concentrations of Ace-IGVAPG or Pal-VGVAPG (12.5, 25, 50 μg/mL) while being maintained in DMEM containing 10% FBS and 1% penicillin/streptomycin/amphotericin B. The skins were formalin fixed, paraffin embedded, sectioned at 8 μm and stain for elastin with the Elastin van Gieson stain.

ex vivo skin biopsies = test: Skin elasticity (percent recovery) of ex vivo skin biopsies, TA.XT Plus Texture Analyzer; settings: 25 μg/mL, 24 h topical treatment
Protocol: Following 24 hours, the TA.XT Plus Texture Analyzer was used to indent ex vivo skin with a 7-mm cylindrical probe with 40% strain and a withdrawal rate of 0.1 mm/s. The TA.XT Plus software generated a curve representative of the force (g) applied to the probe by the biopsy overtime (sec) and the areas under the curve for the duration of indentation and the withdrawal time of the probe were used to calculate the percent recovery.
A purely elastic material has a percent recovery of 100%. Since skin is viscoelastic, its recovery will never be equal to a pure elastic material, ex vivo skin, for example, has a percent recovery of 25% to 35%.

CC(C)C[C@H](NC(=O)[C@H](CC(=O)O)NC(=O)[C@H](CC(C)C)NC(=O)[C@H](CCCCN)NC(=O)[C@H](CC(C)C)NC(=O)[C@H](CC(=O)O)NC(=O)[C@H](CC(C)C)NC(=O)[C@H](CCCCN)NC(=O)[C@H](CC(C)C)NC(=O)[C@H](CC(=O)O)NC(=O)[C@H](CC(C)C)NC(=O)[C@@H](N)CCCCN)C(N)=O [KLDLKLDLKLDL, KLD-12] (H-KLDLKLDLKLDL-NH2)
Sol-gel transition pH [1]: 5
C0 for sol-gel transition by weight of the composition (w/w) ([1]; w/w of the composition): 2%
pH level at which peptide self-assembly was observed within the lower layers of the skin (ex vivo skin): 6

CCCCCCCCCCCCCCCC(=O)N[C@@H](CCCCN)C(=O)N[C@H](C(=O)N[C@H](C(=O)N[C@@H](CCCCN)C(=O)N[C@@H](CO)C(=O)O)[C@@H](C)O)[C@@H](C)O [PAL-KTTKS, Palmitoyl pentapeptide-4] (HELM PEPTIDE1{[CCCCCCCCCCCCCCCC(=O)[*:2]].K.T.T.K.S}$$$$V2.0)
Sol-gel transition pH [1]: 5
Temperature trigger ([1]; sol-gel transition): YES
C0 for sol-gel transition by weight of the composition (w/w) ([1]; w/w of the composition): 0.5%
Concentration trigger of self-assembly within the skin layers (skin layers): ≥ 0.5 % w/w
Temperature trigger of self-assembly within the skin layers (skin layers): 37 °C
pH trigger of self-assembly within the skin layers (skin layers): 5

C[C@H](NC(=O)[C@H](CC(=O)O)NC(=O)[C@H](C)NC(=O)[C@H](CCCNC(=N)N)NC(=O)[C@H](C)NC(=O)[C@H](CC(=O)O)NC(=O)[C@H](C)NC(=O)[C@H](CCCNC(=N)N)NC(=O)[C@H](C)NC(=O)[C@H](CC(=O)O)NC(=O)[C@H](C)NC(=O)[C@H](CCCNC(=N)N)NC(=O)[C@H](C)NC(=O)[C@H](CC(=O)O)NC(=O)[C@H](C)NC(=O)[C@@H](N)CCCNC(=N)N)C(=O)O [RADARADARADARADA, RADA 16]
Sol-gel transition pH [1]: 7
Ionic strength trigger ([1]; sol-gel transition): YES
C0 for sol-gel transition by weight of the composition (w/w) ([1]; w/w of the composition): 2%

CCCCCCCCCCCCCCCC(=O)NCC(=O)N[C@@H](Cc1cnc[nH]1)C(=O)O [PAL-GH, Palmityl dipeptide] (HELM PEPTIDE1{[CCCCCCCCCCCCCCCC(=O)[*:2]].G.H}$$$$V2.0)
C0 for sol-gel transition by weight of the composition (w/w) [1]: 1.25%
Ionic strength trigger [1]: YES
Sol-gel transition pH [1]: 5
Temperature trigger [1]: YES

C[C@H](N)C(=O)N[C@@H](C)C(=O)N[C@@H](C)C(=O)N[C@@H](C)C(=O)N[C@@H](C)C(=O)N[C@@H](C)C(=O)N[C@@H](CCCCN)C(N)=O [AAAAAAK, A6K] (H-AAAAAAK-NH2)
C0 for sol-gel transition by weight of the composition (w/w) [1]: greater than 2%

CC[C@H](C)[C@H](N)C(=O)N[C@@H](CCC(=O)O)C(=O)N[C@H](C(=O)N[C@@H](CCCCN)C(=O)N[C@H](C(=O)N[C@@H](CCC(=O)O)C(=O)N[C@H](C(=O)N[C@@H](CCCCN)C(=O)N[C@H](C(=O)N[C@@H](CCC(=O)O)C(=O)N[C@H](C(=O)N[C@@H](CCCCN)C(=O)N[C@H](C(N)=O)[C@@H](C)CC)[C@@H](C)CC)[C@@H](C)CC)[C@@H](C)CC)[C@@H](C)CC)[C@@H](C)CC [IEIKIEIKIEIKI, IEK-13]
Sol-gel transition pH [1]: 3
Temperature trigger ([1]; sol-gel transition): YES
C0 for sol-gel transition by weight of the composition (w/w) ([1]; w/w of the composition): 2%

CC[C@H](C)[C@H](NC(C)=O)C(=O)NCC(=O)N[C@H](C(=O)N[C@H](C)C(=O)N1CCC[C@H]1C(=O)NCC(=O)O)C(C)C [ACE-IGVAPG, Elastin hexapeptide] (HELM PEPTIDE1{[ac].I.G.V.[dA].P.G}$$$$V2.0)
Elastin fiber integrated density (FIG. 1B) (existing elastin fibers; 42° C.): significant increase
Elastin van Gieson staining signal (FIG. 1A) (existing elastin fibers): highest increase at 37 °C
Elastin intensity (Elastin van Gieson stain, FIG. 2) ([2]; 25 μg/mL): increase
Elastin intensity (Elastin van Gieson stain, FIG. 2) ([2]; 50 μg/mL): increase
pH level at which peptide self-assembly was observed within the lower layers of the skin (ex vivo skin): 5 and 7
Greater recovery than non-treated samples (ex vivo skin biopsies): about 25%
Percent recovery compared to non-treated controls (FIG. 6B) (ex vivo skin biopsies; p=0.0056): significantly higher

CCCCCCCCCCCCCCCC(=O)N[C@H](C(=O)NCC(=O)N[C@H](C(=O)N[C@@H](C)C(=O)N1CCC[C@H]1C(=O)NCC(=O)O)C(C)C)C(C)C [PAL-VGVAPG, Palmitoyl hexapeptide] (HELM PEPTIDE1{[CCCCCCCCCCCCCCCC(=O)[*:2]].V.G.V.A.P.G}$$$$V2.0)
Sol-gel transition pH [1]: 7
Ionic strength trigger ([1]; sol-gel transition): YES
Temperature trigger ([1]; sol-gel transition): YES
C0 for sol-gel transition by weight of the composition (w/w) ([1]; w/w of the composition): 1%
Elastin fiber integrated density (FIG. 1B) (existing elastin fibers; 37° C.): significant increase
Elastin fiber integrated density (FIG. 1B) (existing elastin fibers; 42° C.): significant increase
Elastin van Gieson staining signal (FIG. 1A) (existing elastin fibers): increase in signal as temperature increased
Elastin intensity (Elastin van Gieson stain, FIG. 2) ([2]; 12.5 μg/mL): increased
Elastin intensity (Elastin van Gieson stain, FIG. 2) ([2]; 25 μg/mL): increased
Elastin intensity (Elastin van Gieson stain, FIG. 2) ([2]; 50 μg/mL): increased
pH level at which peptide self-assembly was observed within the lower layers of the skin (ex vivo skin): 6 and 8
Concentration trigger of self-assembly within the skin layers (skin layers): > 0.01 % w/w
Temperature trigger of self-assembly within the skin layers (skin layers): 37 °C
pH trigger of self-assembly within the skin layers (skin layers): 7
